Experimental data taken from patent publication US11951214B2, “Capsule formulations” (CHEMOCENTRYX, INC., priority 2018, dated 2024).
≈ marks a conversion by molar mass, not a printed value. Like-named read-outs stand apart in the source and are kept apart here.

What was measured:
[1] = pH solubility profile of Compound 1 in buffers, water, HCl and biorelevant media; type: physicochemical
[2] = Solubility of Compound 1 in alternative excipients/solvents (liquid formulations, cranberry juice dilution); type: physicochemical
Method: Liquid formulations of PEG400/EtOH and Compound 1 can be prepared using general methods for making liquid formulations known in the art. For example, Compound 1 was dissolved in EtOH with agitation and ambient temperature, then the desired amount of PEG400 was added to achieve the desired ratios.
The liquid formulations of the present example are prepared as described in Example 2. When additional excipients are included, they are added after dissolution of Compound 1 in ethanol.

[3] = Pharmacokinetics of solid solution capsule in patients with ANCA associated vasculitis; type: in vivo, Humans; settings: for Days 57-85 Cmin, Mean / AUC(0-t) / Cmax / Tmax: 30 mg twice daily oral, 50:50 solid solution capsules; for AUC(0-t) / Cmax / Tmax: human, in vivo, po; for AUC(0-t): read-out: Day 1 AUC0-6hr, Mean; for Cmax: read-out: Day 1 Cmax, Mean; for Tmax: read-out: Day 1 Tmax, Mean
Method: Solid Solution capsules of Compound 1 comprising 50:50 macrogol-40-glycerol hydroxystearate:PEG-4000 were prepared using the general procedures described in Example 4.
Patients with AAV were randomized and double-blind in placebo-controlled clinical trial conducted in a step-wise manner to evaluate the efficacy and safety of Compound 1 formulated in a solid solution as described above with reduced or no prednisone in comparison with the standard of care full dose prednisone. All patients received either cyclophosphamide (CYC) or rituximab (RTX) intravenously. 22 subjects received 30 mg of Compound 1 as described above b.i.d. for 84 days and no prednisone (prednisone-matching placebo), 22 subjects received 30 mg Compound 1 as described above b.i.d. for 84 days plus a reduced starting dose (i.e., 20 mg/day) of prednisone, and 23 subjects received Compound 1 as described above—matching placebo b.i.d. for 84 days plus a full starting dose of prednisone (i.e., 60 mg/day). All subjects received IV cyclophosphamide or rituximab.

[4] = Food effect study (high fat, high calorie meal) in healthy volunteers; type: in vivo, human; settings: for Tmax / AUC(0-inf) / AUC(0-t) / Cmax: human, plasma, 30 mg; for AUC(0-inf): read-out: AUC0-inf, Geometric LSM; for AUC(0-t): read-out: AUC0-t, Geometric LSM; for Cmax: read-out: Cmax, Geometric LSM
Method: An open-label study in 16 healthy volunteers to evaluate the pharmacokinetic effect of a high fat (˜50% of total caloric content of the meal), high calorie meal on the solid solution capsule of Compound 1 in a 50:50 mixture of macrogol-40-glycerol hydroxystearate:PEG-4000. Subjects received a single oral dose of 30 mg Compound 1, given in the fed or fasted state. Blood samples were collected for measurement of Compound 1 plasma concentrations.

[5] = AAV patients, Compound 1 + Low Dose Prednisone
[6] = 30 mg, AAV patients, Compound 1 + No Prednisone
[7] = 30 mg, AAV patients, Compound 1 with or without Prednisone
[8] = healthy volunteers, 30 mg single oral dose, 100 × (test/reference)
[9] = high fat, high calorie meal with 30 mg Compound 1
[10] = po, healthy volunteers, 30 mg single oral dose, 50:50 solid solution capsule, Fasted
[11] = po, healthy volunteers, 30 mg single oral dose, 50:50 solid solution capsule, Fed (high fat, high calorie meal)

- solubility ([1]; Fasted-State Simulated Intestinal Fluid (FaSSIF), FaSSIF, pH 6.5, actual pH 6.47): 0.656 µg/mL (≈ 1.13 µM)
- solubility ([1]; Fed-State Simulated Intestinal Fluid (FeSSIF), FeSSIF, pH 5, actual pH 4.98): 2.09 µg/mL (≈ 3.6 µM)
- solubility ([1]; Fed-State Simulated Intestinal Fluid (FeSSIF), FeSSIF, pH 6.5, actual pH 6.47): 1.96 µg/mL (≈ 3.37 µM)
- solubility ([1]; Simulated Gastric Fluid (SGF), simulated gastric fluid, SGF, pH 1.6, actual pH 1.39): 2.65 µg/mL (≈ 4.55 µM)
- solubility ([1]; Water, actual pH 5.92): 0.008 µg/mL (≈ 0.0138 µM)
- aqueous solubility ([1]; across full spectrum of pH range, including the biorelevant media and water): very poor aqueous solubility
- solubility ([1]; aqueous buffer, pH 2 Buffer, actual pH 1.99): 0.863 µg/mL (≈ 1.48 µM)
- solubility ([1]; aqueous buffer, pH 3 Buffer, actual pH 3.01): 0.101 µg/mL (≈ 0.174 µM)
- solubility ([1]; aqueous buffer, pH 4 Buffer, actual pH 4.01): 0.013 µg/mL (≈ 0.0224 µM)
- solubility ([1]; aqueous buffer, pH 5 Buffer, actual pH 5.00): 0.021 µg/mL (≈ 0.0361 µM)
- solubility ([1]; aqueous buffer, pH 6 Buffer, actual pH 6.00): 0.021 µg/mL (≈ 0.0361 µM)
- solubility ([1]; aqueous buffer, pH 7 Buffer, actual pH 7.03): 0.053 µg/mL (≈ 0.0911 µM)
- solubility ([1]; aqueous buffer, pH 8 Buffer, actual pH 8.00): 0.068 µg/mL (≈ 0.117 µM)
- solubility ([1]; aqueous buffer, pH 9 Buffer, actual pH 9.00): 0.101 µg/mL (≈ 0.174 µM)
- solubility ([1]; aqueous buffer, pH 10 Buffer, actual pH 9.95): 0.03 µg/mL (≈ 0.0516 µM)
- solubility ([1]; simulated gastric fluid, 0.1N HCl, actual pH 1.05): 8.05 µg/mL (≈ 13.8 µM)
- solubility ([2]; Captisol in water (40% w/v), aqueous with cosolvent or surfactant or cyclodextrin, thermodynamic from solid, Captisol in water (40% w/v), read-out: Solubility): 0.01 mg/mL (≈ 17.2 µM)
- solubility ([2]; Cavitron W7 HP5 in water (40% w/v)): 0.05 mg/mL (≈ 86 µM)
- Additional Observations ([2]; PEG400/EtOH/Cremophor EL (70/25/5 v/v), prepared 20 mg/mL formulation): A translucent solution.
- solubility ([2]; PEG400/EtOH/Solutol HS 15 (50/40/10 v/v), organic solvent or mixture, thermodynamic from solid, PEG400/EtOH/Solutol HS 15 (50/40/10 v/v), visually, against 30 mg/mL control solution, read-out: Solubility): ~30 mg/mL (≈ 51600 µM)
- solubility ([2]; PEG400/EtOH/Solutol HS 15 (50/45/5 v/v), organic solvent or mixture, thermodynamic from solid, PEG400/EtOH/Solutol HS 15 (50/45/5 v/v), visually, against 30 mg/mL control solution, read-out: Solubility): ~30 mg/mL (≈ 51600 µM)
- solubility ([2]; PEG400/EtOH/Solutol HS 15 (70/20/10 v/v), organic solvent or mixture, PEG400/EtOH/Solutol HS 15 (70/20/10 v/v), read-out: Solubility): 20.4 mg/mL (≈ 35100 µM)
- Additional Observations ([2]; PEG400/EtOH/Solutol HS 15 (70/25/5 v/v), 20.0 mg/mL, in cranberry juice): Precipitate forms in cranberry juice.
- solubility ([2]; PEG400/EtOH/Solutol HS 15 (70/25/5 v/v), organic solvent or mixture, PEG400/EtOH/Solutol HS 15 (70/25/5 v/v), read-out: Solubility): 20 mg/mL (≈ 34400 µM)
- solubility ([2]; PEG400/EtOH/Transcutol P (50/40/10 v/v), organic solvent or mixture, PEG400/EtOH/Transcutol P (50/40/10 v/v), second listing, read-out: Solubility): 20.2 mg/mL (≈ 34700 µM)
- solubility ([2]; PEG400/EtOH/Transcutol P (50/40/10 v/v), organic solvent or mixture, thermodynamic from solid, PEG400/EtOH/Transcutol P (50/40/10 v/v), visually, against 30 mg/mL control solution, read-out: Solubility): ~30 mg/mL (≈ 51600 µM)
- solubility ([2]; PEG400/EtOH/Transcutol P (50/45/5 v/v), organic solvent or mixture, PEG400/EtOH/Transcutol P (50/45/5 v/v), second listing, read-out: Solubility): 19.9 mg/mL (≈ 34200 µM)
- solubility ([2]; PEG400/EtOH/Transcutol P (50/45/5 v/v), organic solvent or mixture, PEG400/EtOH/Transcutol P (50/45/5 v/v), visually, against 30 mg/mL control solution, read-out: Solubility): ~30 mg/mL (≈ 51600 µM)
- solubility ([2]; PEG400/Propylene Glycol (50/50 v/v), organic solvent or mixture, PEG400/Propylene Glycol (50/50 v/v), read-out: Solubility): 10.9 mg/mL (≈ 18700 µM)
- Days 57-85 Cmin, Mean [3, 5]: 219 ng/mL
- Days 57-85 Cmin, Mean ([3]; AAV patients, Compound 1 + No Prednisone): 177 ng/mL
- Days 57-85 Cmin, Mean ([3]; AAV patients, Compound 1 with or without Prednisone): 204 ng/mL
- absorption ([3]; following the first dose of 30 mg on Day 1, AAV patients): absorbed rapidly
- AUC(0-t) [3, 6]: 526 ng·h/mL
- Cmax [3, 6]: 166 ± 55.2 ng/mL
- Tmax [3, 6]: 2.85 h
- AUC(0-t) [3, 7]: 580 ± 219 ng·h/mL
- Cmax [3, 7]: 188 ± 69 ng/mL
- Tmax [3, 7]: 2.62 h
- AUC(0-t) [3, 5]: 643 ng·h/mL
- Cmax [3, 5]: 214 ng/mL
- Tmax [3, 5]: 2.35 h
- drug-drug interaction ([3]; with concomitant medications prednisone, cyclophosphamide, and rituximab, AAV patients): No significant drug-drug interaction
- AUC0-inf, GMR (fed/fasted) [4, 8]: 171.60%
- AUC0-t, GMR (fed/fasted) [4, 8]: 170.68%
- Cmax, GMR (fed/fasted) [4, 8]: 107.98%
- Tmax, GMR (fed/fasted) [4, 8]: 235.29%
- increase of Cmax, fed compared to fasted [4, 9]: 8%
- increase of plasma Compound 1 AUC, fed compared to fasted [4, 9]: approximately 70%
- Tmax ([4]; oral, high fat, high calorie meal with 30 mg Compound 1, read-out: delay of Tmax in the fed population): ~3 h
- AUC(0-inf) [4, 10]: 959 ng·h/mL
- AUC(0-t) [4, 10]: 826 ng·h/mL
- Cmax [4, 10]: 119 ng/mL
- Tmax ([4]; po, healthy volunteers, 30 mg single oral dose, 50:50 solid solution capsule, Fasted, read-out: Tmax, untransformed LSM): 2.29 h
- AUC(0-inf) [4, 11]: 1650 ng·h/mL
- AUC(0-t) [4, 11]: 1410 ng·h/mL
- Cmax [4, 11]: 128 ng/mL
- Tmax ([4]; po, healthy volunteers, 30 mg single oral dose, 50:50 solid solution capsule, Fed (high fat, high calorie meal), read-out: Tmax, untransformed LSM): 5.38 h
SMILES: Cc1ccc(NC(=O)[C@H]2CCCN(C(=O)c3c(C)cccc3F)[C@H]2c2ccc(NC3CCCC3)cc2)cc1C(F)(F)F [Compound 1, (2R,3 S)-2-(4-(cyclopentylamino)phenyl)-1-(2-fluoro-6-methylbenzoyl)-N-(4-methyl-3-(trifluoromethyl)phenyl)piperidine-3-carboxamide]
- Additional Observations ([2]; Captisol in water (40% w/v), overnight): API undissolved overnight even with warming to 60°.
- Additional Observations ([2]; Cavitron W7 HP5 in water (40% w/v), overnight): API undissolved overnight even with warming to 60°.
- Additional Observations ([2]; PEG400/EtOH/Cremophor EL (50/45/5 v/v), prepared 20 mg/mL formulation): A translucent solution with floating fine particles.
- Additional Observations ([2]; PEG400/EtOH/Solutol HS 15 (50/40/10 v/v), ~30 mg/mL, overnight): few API particles left overnight, did not attempt
- Additional Observations ([2]; PEG400/EtOH/Solutol HS 15 (50/45/5 v/v), ~30 mg/mL, overnight): API particles left overnight, did not attempt cranberry
- Additional Observations ([2]; PEG400/EtOH/Solutol HS 15 (70/20/10 v/v), 20.4 mg/mL, in cranberry juice): Slow to precipitate with addition to cranberry juice.
- Additional Observations ([2]; PEG400/EtOH/Transcutol P (50/40/10 v/v), ~30 mg/mL, overnight): few API particles left overnight, did not attempt
- Additional Observations ([2]; PEG400/EtOH/Transcutol P (50/45/5 v/v), ~30 mg/mL, overnight): few API particles left overnight, did not attempt
- Additional Observations ([2]; PEG400/Propylene Glycol (50/50 v/v), overnight, then addition of cranberry juice): Somewhat dissolved overnight, however, precipitation
- solubility in control vehicle ([2]; control solution of PEG400/EtOH (50/50% v/v) with 30 mg/mL): Compound 1 is not fully soluble in control vehicle. A few
